Laboratory results reported in patent US20110189280A1, “DOSAGE FORM COMPRISING 1-ISOPROPYL-4-HEXAHYDRO-1H-1,4-DIAZEPINE OR A SALT THEREOF” (priority 2008, published 2011).

Assay: Gravimetric vapour sorption (GVS) analysis, water sorption/desorption at different relative humidities
Type: physicochemical
Settings: across the 0-90% relative humidity range at 25° C. under nitrogen

Row | water adsorbed and/or absorbed, and/or desorbed (GVS), compared with crystalline Form 1 mono-maleate (sample before purification by recrystallisation, data not shown) | water reversibly adsorbed and/or absorbed, and/or desorbed (GVS) | SMILES
1 | higher quantities of water | – | CC(C)N1CCCN(C(=O)c2ccc(OC3CCOCC3)cc2)CC1.Cl [Drug Preparation Example 1 Part C, 1-isopropyl-4-{[4-(tetrahydro-2H-pyran-4-yloxy)phenyl]carbonyl}hexahydro-1H-1,4-diazepine hydrochloride]
2 | – | approximately 0.4 % w/w | CC(C)N1CCCN(C(=O)c2ccc(OC3CCOCC3)cc2)CC1.O=C(O)/C=C\C(=O)O [Drug Preparation Example 3, 1-Isopropyl-4-{[4-(tetrahydro-2H-pyran-4-yloxy)phenyl]carbonyl}hexahydro-1H-1,4-diazepine mono-maleate salt (crystalline Form 1)]
